According to US4202891A, “15-Oxygenated sterol compounds and the use of such compounds to inhibit the biosynthesis of sterols” (priority 1977, dated 1980):
Read-outs that look alike come from different tables or passages of the source.

Assays:
[1] = tested on: sterol biosynthesis in L cells; assay: Inhibition of sterol synthesis from [1-14C]acetate in L cell cultures; assay type: cell-based; details: Mus musculus; for inhibition at 0.1 µM: read-out: inhibition of sterol synthesis
Protocol: (§1) The effect of various 15-oxygenated sterols on sterol biosynthesis in L cells and in primary cultures of mouse liver cells was tested essentially under conditions described in detail previously [A. A. Kandutsch and H. W. Chen, J. Biol. Chem., Vol. 248, pp. 8408-8417 (1973) and A. A. Kandutsch and H. W. Chen, J. Biol. Chem., Vol. 249, pp. 6057-6061 (1974`)].
(§2) The primary liver cell cultures were prepared from 16-day-old (C57BL/6J fetuses and grown in chemically defined medium (serum-free) as described in the above cited publications. The L cells, a subline of NCTC clone 929 mouse fibroblasts, were grown in chemically defined medium (serum-free) as described in the publications. These L cells are transformed fibroblasts which are regarded as malignant since they will grow as tumors if injected into the mouse strain from which they were initially obtained.
(§3) The preparation of steroid-containing media, procedures for assays of the conversion of [1-^14 C]acetate into digitonin-precipitable sterols, fatty acids, and CO2 and methods for the measurement of DNA, protein, and HMG-CoA reductase were as described in the published articles. L cell cultures were preincubated with the 15-oxygenated sterols and their derivatives for 4 hours, then [1-^14 C]acetate was added at a concentration of 4 μmoles per ml (4 μCi per ml); or the L cell cultures were incubated for 5 hours with the 15-oxygenated sterols before they were harvested for determination of microsomal HMG-CoA reductase activity.
(§4) The test compounds were tested over a range of at least 4 concentrations and the assay was repeated until the concentration of test compound required to produce 50% inhibition was located on the steeply declining portion of an activity vs. concentration plot. To diminish any possible effects of generalized differences in cellular metabolism, the rates of sterol synthesis from [1-^14 C]acetate were calculated as the ratio of [^14 C]sterols to [^14 C]fatty acids as described in the two cited articles by Kandutsch and Chen.

HMG-CoA reductase = assay: Reduction of the activity of HMG-CoA reductase in L cell cultures; assay type: cell-based, mouse; details: read-out: Concentrations Required for 50% Reduction of the Activity of HMG-CoA Reductase
Protocol: as §2, §3
A number of the 15-oxygenated sterols have also been tested with respect to their effects on the activity and/or levels of the enzyme HMG-CoA reductase (3-hydroxy-3-methylglutaryl coenzyme A reductase) in the L cells and in the liver cells. As noted previously, this enzyme catalyzes the reduction of 3-hydroxy-3-methylglutaryl coenzyme A to yield mevalonic acid, an essential intermediate in the biosynthesis of sterols and of a number of other essential compounds in cells.
Using the technique described by Kandutsch and Chen in the article cited in the previous example, the concentrations of various 15-oxygenated sterols required to reduce the levels of activity of HMG-CoA reductase by 50% was determined in the cells of the L cells in culture and of the primary cultures of liver cells.

[2] = tested on: sterol biosynthesis in primary cultures of mouse liver cells; assay: Inhibition of sterol synthesis from [1-14C]acetate in primary cultures of liver cells; assay type: cell-based
Protocol: as §1, §2, §3
Conditions for incubating the 15-oxygenated sterols or their derivatives with liver cell cultures were similar to those described for L cell cultures except that the cultures were incubated with the test compounds for 12 hours before labeled acetate was added or before they were harvested for enzyme assay.
as §4

serum cholesterol = assay: Effect on serum cholesterol levels in rats, daily subcutaneous injection (Examples 41, 42); assay type: in vivo, rat (male, Sprague-Dawley); details: Example 42; for Serum Cholesterol (Mean ± S.E.M.): 5 mg s.c. once a day in triolein
Protocol: Male rats of the Sprague-Dawley strain were fed Purina rat chow ad libidum. The rats were maintained on a light (7 A.M.-6 P.M.) -dark (6 P.M.-7 A.M.) cycle throughout the study and for a period of at least 4 days prior to the initiation of the study.
3β-Hexadecanoyloxy-5α-cholest-8(14)-en-15-one (5 mg; dissolved in 0.25 ml of triolein), hereafter referred to as the "palmitate ester", or 3β-hemisuccinoyloxy-5α-cholest-8(14)-en-15-one (5 mg; suspended in 0.25 ml of triolein through the use of a tight-fitting all-glass homogenizer), hereafter referred to as the "hemisuccinate ester", were administered subcutaneously once a day at about 12 P.M. to each of eight and six rats, respectively. Control animals (8) received daily injections of triolein (0.25 ml).
Blood samples were taken from the rats periodically and the serum cholesterol concentrations measured, in duplicate, by the method of Abell et al., J. Biol. Chem., Vol. 195, pp. 357-366 ([…]).
Following generally the procedure described in Example 41, 3β-Ethoxy-14α-ethyl-5α-cholest-7-en-15-one (5 mg) in triolein (0.25 ml) was administered subcutaneously once a day to each of eight rats. Control animals (8) received daily injections of triolein (0.25 ml).
Similarly, 5α-cholest-8(14)-en-3β-ol-15-one (2mg) in (0.2 ml) olive oil or 5.0 mg in 0.5 ml of olive oil) was administered subcutaneously once a day to each of a group of rats. The 2 mg dose was administered to 12 rats, while a like number of rats received daily injections of 0.2 ml olive oil. 5 mg doses were administered to each of 6 rats, while 6 control animals received daily injections of 0.5 ml olive oil. The rats used in this study initially weighed between 110 and 190 grams.

[3] = read-out: Concentrations Required for 50% Inhibition of Sterol Synthesis
[4] = read-out: concentration causing 50% inhibition of sterol synthesis

## CC(C)CCC[C@@H](C)[C@H]1CC(=O)C2=C3CC[C@H]4C[C@H](O)CC[C@]4(C)[C@H]3CC[C@@]21C [5α-Cholest-8(14)-en-3α-ol-15-one, 5α-cholest-8(14)-en-3α-ol-15-one]
[1]; L cell cultures, read-out: Concentrations Required for 50% Inhibition of Sterol Synthesis
  IC50: 500 nM

## CCCCCCCCCCCCCCCC(=O)O[C@H]1CC[C@@]2(C)[C@@H](CC=C3[C@@H]2CC[C@]2(C)[C@@H]([C@H](C)CCCC(C)C)C[C@H](O)[C@@]32CC)C1 [3β-hexadecanoyloxy-14α-ethyl-5α-cholest-7-en-15α-ol]
[1]; [3]
  IC50: 7000 nM

## CC[C@@]12C(=O)C[C@H]([C@H](C)CCCC(C)C)[C@@]1(C)CC[C@H]1C2=CC[C@H]2C[C@H](O)CC[C@@]21C [14α-Ethyl-5α-cholest-7-en-3α-ol-15-one, 14α-ethyl-5α-cholest-7-en-3α-ol-15-one]
[1]; [3]
  IC50: < 100 nM
[1]
  inhibition at 0.1 µM: ~100%

## CC(C)CCC[C@@H](C)[C@H]1C[C@@H](O)[C@@H]2C3=CC[C@H]4CC(=O)CC[C@]4(C)[C@H]3CC[C@]12C [5α,14β-Cholest-7-en-15β-ol-3-one, 5α,14β-cholest-7-en-15β-ol-3-one]
[1]; [3]
  IC50: 250 nM

## CCC[C@]12C3=CC[C@H]4C[C@@H](O)CC[C@]4(C)[C@H]3CC[C@]1(C)[C@@H]([C@H](C)CCCC(C)C)C[C@H]2O [14α-n-Propyl-5α-cholest-7-en-3β,15β-diol, 14α-n-propyl-5α-cholest-7-en-3β,15β-diol]
[1]; [3]
  IC50: 4100 nM

## CCCC[C@]12C3=CC[C@H]4C[C@@H](O)CC[C@]4(C)[C@H]3CC[C@]1(C)[C@@H]([C@H](C)CCCC(C)C)C[C@H]2O [14α-n-Butyl-5α-cholest-7-en-3β,15β-diol, 14α-n-butyl-5α-cholest-7-en-3β,15β-diol]
[1]; [3]
  IC50: 4400 nM

## CCCC[C@]12C3=CC[C@H]4C[C@@H](O)CC[C@]4(C)[C@H]3CC[C@]1(C)[C@@H]([C@H](C)CCCC(C)C)C[C@@H]2O [14α-n-Butyl-5α-cholest-7-en-3β,15α-diol, 14α-n-butyl-5α-cholest-7-en-3β,15α-diol]
[1]; [3]
  IC50: 5000 nM

## CC[C@]12C3=CC[C@H]4C[C@@H](OC(C)=O)CC[C@]4(C)[C@H]3CC[C@]1(C)[C@@H]([C@H](C)CCCC(C)C)C[C@H]2O [3β-acetoxy-14α-ethyl-5α-cholest-7-en-15β-ol]
[1]; [3]
  IC50: 30 nM
HMG-CoA reductase
  IC50: 130 nM

## CO[C@H]1CC[C@@]2(C)[C@@H](CC=C3[C@@H]2CC[C@]2(C)[C@@H]([C@H](C)CCCC(C)C)CC(=O)[C@@]32C)C1 [3β-methoxy-14α-methyl-5α-cholest-7-en-15-one]
[1]; [3]
  IC50: 20000 nM

## CC[C@]12C3=CC[C@H]4C[C@@H](O)CC[C@]4(C)[C@H]3CC[C@]1(C)[C@@H]([C@H](C)CCCC(C)C)C[C@@H]2O [14α-Ethyl-5α-cholest-7-en-3β,15α-diol, 14α-ethyl-5α-cholest-7-en-3β,15α-diol]
[1]; [4]
  IC50: 50 nM
[2]; [3]
  IC50: 60 nM
[2]; [4]
  IC50: 60 nM

## CC(C)CCC[C@@H](C)[C@H]1C[C@H](O)C2=C3CC[C@H]4C[C@@H](O)CC[C@]4(C)[C@H]3CC[C@@]21C [5α-Cholest-8(14)-en-3β,15α-diol]
[1]; [3]
  IC50: 3700 nM
[2]; [3]
  IC50: 31000 nM

## CC[C@]12C3=CC[C@H]4CC(=O)CC[C@]4(C)[C@H]3CC[C@]1(C)[C@@H]([C@H](C)CCCC(C)C)C[C@@H]2O [14α-Ethyl-5α-cholest-7-en-15α-ol-3-one, 14α-ethyl-5α-cholest-7-en-15α-ol-3-one]
[1]; [3]
  IC50: < 100 nM
[1]
  inhibition at 0.1 µM: ~100%

## CCCCCCCCCCCCCCCC(=O)O[C@H]1CC[C@@]2(C)[C@@H](CC=C3[C@@H]2CC[C@]2(C)[C@@H]([C@H](C)CCCC(C)C)C[C@@H](O)[C@@]32CC)C1 [3β-hexadecanoyloxy-14α-ethyl-5α-cholest-7-en-15β-ol]
[1]; [3]
  IC50: > 15100 nM

## CC[C@]12C3=CC[C@H]4C[C@@H](O)CC[C@]4(C)[C@H]3CC[C@]1(C)[C@@H]([C@H](C)CCCC(C)C)C[C@H]2O [14α-Ethyl-5α-cholest-7-en-3β,15β-diol, 14α-ethyl-5α-cholest-7-en-3β,15β-diol]
[1]; [3]
  IC50: 400 nM
[2]; [3]
  IC50: 800 nM

## CCC[C@@]12C(=O)C[C@H]([C@H](C)CCCC(C)C)[C@@]1(C)CC[C@H]1C2=CC[C@H]2C[C@@H](O)CC[C@@]21C [14α-n-propyl-5α-cholest-7-en-3β-ol-15-one]
[1]; [3]
  IC50: 3400 nM

## CC(C)CCC[C@@H](C)[C@H]1C[C@H](O)[C@@H]2C3=CC[C@H]4CC(=O)CC[C@]4(C)[C@H]3CC[C@]12C [5α,14β-Cholest-7-en-15α-ol-3-one, 5α,14β-cholest-7-en-15α-ol-3-one]
[1]; [3]
  IC50: 2000 nM

## CCC[C@]12C3=CC[C@H]4C[C@@H](O)CC[C@]4(C)[C@H]3CC[C@]1(C)[C@@H]([C@H](C)CCCC(C)C)C[C@@H]2O [14α-n-Propyl-5α-cholest-7-en-3β,15α-diol, 14α-n-propyl-5α-cholest-7-en-3β,15α-diol]
[1]; [3]
  IC50: 1100 nM

## CCO[C@H]1CC[C@@]2(C)[C@@H](CC=C3[C@@H]2CC[C@]2(C)[C@@H]([C@H](C)CCCC(C)C)CC(=O)[C@@]32CC)C1 [3β-ethoxy-14α-ethyl-5α-cholest-7-en-15-one]
Serum cholesterol; day 0
  Serum Cholesterol (Mean ± S.E.M.): 89.1 ± 2.2 mg per 100 ml
Serum cholesterol; day 6
  Serum Cholesterol (Mean ± S.E.M.): 77.3 ± 2.1 mg per 100 ml
Serum cholesterol; day 10
  Serum Cholesterol (Mean ± S.E.M.): 80.1 ± 2.3 mg per 100 ml
Serum cholesterol; day 15
  Serum Cholesterol (Mean ± S.E.M.): 78.5 ± 3.3 mg per 100 ml
Serum cholesterol; day 21
  Serum Cholesterol (Mean ± S.E.M.): 73.1 ± 2.3 mg per 100 ml
Serum cholesterol; day 27
  Serum Cholesterol (Mean ± S.E.M.): 66.8 ± 2.6 mg per 100 ml
Serum cholesterol; 5 mg s.c. once a day, day 6
  % Reduction (relative to triolein-treated rats): 4.8%
Serum cholesterol; 5 mg s.c. once a day, day 10
  % Reduction (relative to triolein-treated rats): 3.4%
Serum cholesterol; 5 mg s.c. once a day, day 15
  % Reduction (relative to triolein-treated rats): 3.8%
Serum cholesterol; 5 mg s.c. once a day, day 21
  % Reduction (relative to triolein-treated rats): 11.5%
Serum cholesterol; 5 mg s.c. once a day, day 27
  % Reduction (relative to triolein-treated rats): 18.3%
Serum cholesterol; 5 mg s.c. once a day, day 27 vs. day 0
  percentage reduction in serum cholesterol levels, mean value (S.E.M.): 25.0
[1]; [3]
  IC50: > 22000 nM

## CCCC[C@@]12C(=O)C[C@H]([C@H](C)CCCC(C)C)[C@@]1(C)CC[C@H]1C2=CC[C@H]2C[C@@H](O)CC[C@@]21C [14α-n-Butyl-5α-cholest-7-en-3β-ol-15-one, 14α-n-butyl-5α-cholest-7-en-3β-ol-15-one]
[1]; [3]
  IC50: 8300 nM

## CCO[C@H]1CC[C@@]2(C)[C@@H](CC=C3[C@@H]2CC[C@]2(C)[C@@H]([C@H](C)CCCC(C)C)CC(O)[C@@]32CC)C1 (stereo partly drawn) [3β-Ethoxy-14α-ethyl-5α-cholest-7-en-15-ol]
[1]; [3]
  IC50: 700 nM
[2]; [3]
  IC50: 4300 nM
